Experimental data as given in US11110158B2, “Prostate-associated antigens and vaccine-based immunotherapy regimens” (Pfizer Inc., priority 2012, dated 2021).

Legend:
[1] = test system: hPSMA full-length protein; assay: IFN-γ ELISPOT, hPSMA modified versus full-length DNA vaccine in Pasteur (HLA-A2/DR1) transgenic mice; format: in vivo, human
Source text: The immune responses induced by DNA vaccination using a construct encoding an immunogenic PSMA polypeptide (the “human PSMA modified antigen” or “hPSMA modified”) consisting 15-750 amino acids (aa) of the native human PSMA protein of SEQ ID NO: 1 were compared with those induced by the native human full-length PSMA protein (hPSMA full length). Groups of female C57BL/6 mice or female Pasteur (HLA-A2/DR1) transgenic mice were primed on day 0 and boosted on days 14, 28 by PMED administration with a 2 μg dose of a DNA vaccine encoding either hPSMA full-length or hPSMA modified protein. Mice were bled and sacrificed on day 35 (7 days after the third vaccination) and T cell immune responses against the hPSMA full-length protein were determined in splenocytes by IFN-γ ELISPOT assay. For C57BL/6 mice, single cell suspensions of 5×10^5 splenocytes from individual animals were plated per well with […] purified hPSMA protein, 5×10^4 TRAMP-C2 cells alone, or TRAMP-C2 cells expressing hPSMA or a PSMA-PSA-PSCA fusion protein. […] Responses in Pasteur mice were also determined using 10 μg/ml purified PSMA protein or 5×10^4 SK-Mel5 cells that had been transduced with Adenoviral vectors expressing a control protein (Ad-eGFP) or the full-length human PSMA protein (Ad-hPSMA). […] The number of IFN-γ SFC was counted by a CTL reader. […]

[2] = test system: rhesus PSMA; assay: IFNγ ELISPOT of PBMCs, rhesus PSMA adenovirus with subcutaneous anti-CTLA-4 in Indian rhesus macaques; format: in vivo; conditions: versus vaccine alone
Method: Five groups of male Indian rhesus macaques, seven (#1 to 7) per each test group, were immunized with an adenovirus encoding a rhesus PSMA modified polypeptide delivered by bilateral intramuscular injections (2×5e10 V.P.). Immediately following the adenovirus injections, group 1 received vehicle, and groups 2 to 4 received bilateral subcutaneous injections of anti-CTLA-4 antibody (CP-675, 206) at doses 2×25 mg, 2×16.7 mg and 2×8.4 mg respectively in proximity to the vaccine draining lymph node.
Nine days after the immunization, peripheral blood mononuclear cells (PBMCs) were isolated from each animal and were subjected to an IFNγ ELISPOT assay to measure the rhesus PSMA specific T cell responses. Briefly, 4e5 PBMCs from individual animals were plated per well with pools of rhesus PSMA specific peptides (P1, P2, P3 or R1+R2 defined in table 24A) or nonspecific control peptides (human HER2 peptide pool) each at 2 ug/ml in IFNγ ELISPOT plates. The plates were incubated for 16 hrs at 37° C. and 5% CO2 and washed and developed after incubation as per manufacturer's instruction. The number of IFNγ spot forming cells (SFC) were counted by CTL reader. Each condition was performed in duplicates. The average of the duplicates from the background adjusted SFC of the rhesus PSMA specific peptide pools was normalized to the response in 1e6 PBMCs.
A capture antibody specific to IFNγ […]BD Bioscience, #51-2525kc) is coated onto a polyvinylidene fluoride (PVDF) membrane in a microplate overnight at 4° C. The plate is blocked with serum/protein to prevent nonspecific binding to the antibody. After blocking, effector cells (such as splenocytes isolated from immunized mice or PBMCs isolated from rhesus macaques) and targets (such as PSMA peptides from peptide library, target cells pulsed with antigen specific peptides or tumor cells expressing the relevant antigens) are added to the wells and incubated overnight at 37° C. in a 5% CO2 incubator. Cytokine secreted by effector cells are captured by the coating antibody on the surface of the PVDF membrane. […]

Row | Substance | IFN-γ T cell immune responses to the HLA-A2-restricted CD8+ T cell epitopes ([1]; Example 7, FIG. 27A, day 35, difference between groups not significant) | IFN-γ SFC to the purified hPSMA protein ([1]; Example 7, FIG. 27B, day 35, versus hPSMA full-length vaccine) | rhesus PSMA specific IFNγ T cell response ([2]; group 2: 50 mg (2×25 mg) subcutaneous near vaccine draining lymph node, P=0.001) | rhesus PSMA specific IFNγ T cell response ([2]; group 3: 33.4 mg subcutaneous, P=0.004) | rhesus PSMA specific IFNγ T cell response ([2]; group 4: 16.7 mg subcutaneous, P=0.05)
1 | PSMA modified: membrane-bound polypeptide of amino acids 15-750 of human PSMA, SEQ ID NO: 9; tested as DNA construct | highest magnitude of IFN-γ T cell immune responses | higher frequencies of IFN-γ SFC |  |  | 
2 | Tremelimumab: fully human IgG2 anti-CTLA-4 monoclonal antibody, CAS 745013-59-6, SEQ ID NOs:42 and 43 |  |  | significantly enhanced | significantly enhanced | significantly enhanced
